The text below walks through data of US11142539B2, “Phosphinogold(I) complexes and methods of treating cancer” (King Fahd University of Petroleum and Minerals, priority 2020, dated 2021).

Test [1] deals with HeLa (human cervical cancer) cell line. Briefly: Cell Titer-Glo luminescence-based cell growth inhibition assay, HeLa. As to conditions: HeLa cells, 72 hours incubation, spread in brackets. On the procedure: (§1) The cell growth inhibition effects of gold(I) complexes 1-4 and cisplatin were measured by the Cell Titer-Glo® luminescence-based assay against the A549 (human lung carcinoma), HeLa (human cervical cancer), and HepG2 (human liver cancer) cell lines according to manufacturer's protocol. Briefly, the cell suspensions were added to each well of 384-w plate at a suitable density (total volume of 40 μL). The margin wells of plate were filled with PBS buffer. The gold(I) complexes were added at various concentrations in triplicate (10 μL solutions of the complex added to the plate), then the plate was incubated for 72 hours in 5% CO2 incubator at 37° C. After that the Cell Titer reagent was added to each tested well and stirred for 2 minutes on an orbital shaker. […] Luminescence signals were measured on PHERAstar Plus. […] The potential effect of the testing complexes on cell growth inhibition expressed as IC50 values was calculated by the formula below: Cell growth Inhibition %=100-100*(Luminescencecomplex)/(LuminescenceDMSO) Cell viability %=100*(Luminescencecomplex)/(LuminescenceDMSO)
(§2) The gold(I) complexes 1-4 and cisplatin were examined for their cell growth inhibition effects against A549, HeLa, and HepG2 human cancer cell lines using Cell Titer-Glo® luminescence-based assay. […]

Test [2] concerns HepG2 (human liver cancer) cell line. Briefly: Cell Titer-Glo luminescence-based cell growth inhibition assay, HepG2. The conditions noted are these: HepG2 cells, 72 hours incubation, spread in brackets. On the procedure: as §1, §2
On the technique in general: ATP-based viability assays read luminescence as a measure of living cells.

For test [3], the system named is A549, HeLa, and HepG2 human cancer cell lines. As to the kind of experiment: Cell Titer-Glo cell growth inhibition, summary statements over all three cell lines. The conditions noted are these: with respect to cisplatin. It counts as cell-based. On the procedure: as §1, §2

Entries after “also recorded” stand apart in the source; their conditions may differ.

What is called IC50 is the point on the concentration scale where inhibition reaches its midpoint. Lower therefore signals higher potency. In the case of `N.N.[Cl][Pt][Cl]` [Cisplatin, cisplatin], the values for the IC50 in test [1] and in test [2] were 21.4 µM and 9.6 µM, respectively.

In the case of `N[C@@H]1CCCC[C@H]1[PH]([Au][Cl])(c1ccccc1)c1ccccc1` [gold(I) complex 1, [Au(ACP)Cl]], the “inhibition of cell proliferation (in words)” value in test [3] is “excellent inhibition of cell proliferation”.

With `CN(C)C(=S)[S][Au][PH](c1ccccc1)(c1ccccc1)[C@@H]1CCCC[C@H]1N` [gold(I) complex 2], the “inhibition of cell proliferation (in words)” value in test [3] is given as “excellent inhibition of cell proliferation; also recorded: best inhibition among the three”.
